Measurements taken from patent US20050002885A1, “Topical compositions and methods for treating pseudofolliculitis barbae and ingrown hair” (priority 1993, published 2005).

Key:
[1] = cited from earlier work
[2] = saturation concentration of acetylsalicylic acid in the solvent mixture; assay type: physicochemical; details: solvent mixture: propylene glycol about 10 percent by volume, glycerine about 2 percent by volume, balance isopropyl alcohol/water with isopropyl alcohol about 70 percent by volume

## CC(=O)Oc1ccccc1C(=O)O [acetylsalicylic acid]
[1]
  solubility in water or water based substances: virtually insoluble
[2]
  saturation concentration of the acetylsalicylic acid in this solvent mixture: about 18 percent by weight per unit volume
